Data set [1] concerns hippocampal kindled rats. Briefly: Hippocampal kindled seizures. The data set is classed as in vivo. On the procedure:
Bipolar electrodes were surgically implanted into the hippocampus of anesthetized rats, which were allowed to recover for one week. One week after the surgery, the rats were stimulated with suprathreshold trains of 200 μAmps for 10 sec, 50 Hz, every 30 min for 6 hours (12 stimulations per day) on alternate days (4 to 5 stimulus days) until they were fully kindled. One week later the effect of a single i.p. dose of test compound was assessed on behavioral seizure score (BSS) and afterdischarge duration (ADD). An initial group of kindled rats (n=6-8) were tested at 15, 45, 75, 105, 135, 165, and 195 min after drug administration. Results obtained at the various time points were compared with the last control stimulus delivered 15 minutes prior to drug administration. Thus, each animal serves as its own control. The BSS's were scored according to the following criteria: Stage 1—mouth and facial clonus; Stage 2—stage 1 plus head nodding; Stage 3—stage 2 plus forelimb clonus; Stage 4—stage 3 plus rearing; Stage 5—stage 4 plus repeated rearing and falling. The afterdischarge threshold (ADT) is measured in the kindled rat. […] The BSS and ADD for each dose were averaged at the TPE, the S.E.M. calculated, and the significance of the difference compared to control values determined. (Significant differences in BSS from control and treated groups are determined by the non-parametric Mann-Whitney U test).

The nature of data set [2]: Plasma protein binding by ultrafiltration. The class given is in vitro ADME. As to conditions: rat plasma. As for the experimental part: For intravenous application, SKA-19 was dissolved at 5 mg/mL in a mixture of 10% CremophorEL (Sigma-Aldrich, St. Louis, Mo., USA) and 90% phosphate-buffered saline and then injected at 10 mg/kg into the tail vein of Sprague-Dawley rats. At various time points after the injection, ˜100 to 200 μL of blood was collected from a tail nick into EDTA blood sample collection tubes. Plasma was separated by centrifugation and stored at −80° C. pending analysis. For intraperitoneal application SKA-19 was dissolved in Miglyol 812 neutral oil (caprylic/capric triglyceride; Trade name Neobee M5, Spectrum Chemicals, Gardena, Calif., USA) at 2 mg/mL and injected intraperitoneally at 10 and 30 mg/kg. After determining that SKA-19 plasma concentrations peaked 2 h after i.p. application, a group of 3 rats was subjected to cardiac puncture under deep isoflurane anesthesia and then sacrificed before removing brain, heart, liver, spleen and fat. Tissue samples were homogenized in 1 ml of H2O with a Brinkman Kinematica PT 1600E homogenizer and the protein precipitated with 1 ml of acetonitrile. The samples were then centrifuged at 3000 rpm and supernatants concentrated to 1 ml. Plasma and homogenized tissue samples were purified using C18 solid phase extraction cartridges. Eluted fractions corresponding to SKA-19 were dried under nitrogen and reconstituted in acetonitrile. […] Using electrospray ionization MS and selective reaction monitoring (SRM) (capillary temperature 350° C., capillary voltage 4000 V, collision energy −26 eV, positive ion mode), SKA-19 was quantified by its base peak of 182.9 m/z (C7H7N2S2^•+ fragment) and its concentration was calculated with a 9-point calibration curve from 50 nmol/L to 10 μmol/L. The percentage of plasma protein binding for SKA-19 was determined by ultrafiltration. […] The centrifugate (=free SKA-19) was directly analyzed for SKA-19 by UPLC-MS. […]

The target in data set [3] is KCa2.2 (SK2) (Rattus norvegicus, UniProt P70604). Briefly: Whole-cell patch-clamp, KCa2.2. As to conditions: 250 nM free intracellular Ca2+. The class given is cell-based, human. As for the experimental part: HEK-293 or COS-7 cells stably expressing hKCa2.1, rKCa2.2, and hKCa2.3 have been described previously (Sankaranarayanan et al., 2009). Cells were held at −80 mV and KCa currents elicited by dialysis with a K^+ aspartate based internal containing 250 nM free Ca^2+ (pH 7.2, 290 mOsm, pipette resistance 1.5 MΩ). To reduce currents from native chloride channels, Na^+ aspartate Ringer was used as an external solution. KCa2 currents were recorded with 200-ms voltage ramps from −120 to +40 mV applied every 10 s, and the fold increase of slope conductance at −80 mV by drug was taken as a measure of channel activation. Data analysis, fitting, and plotting were performed with IGOR-Pro (Wavemetrics, Lake Oswego, Oreg., USA) and Origin 9.0 (OriginLab, Northampton, Mass., USA).
(In general: Patch clamp records ionic current or voltage across a cell membrane.)

Each structure is given as a SMILES string.

For orientation: ED50 means the dose that gives a 50% effect, or the effect in half of the subjects. The fraction unbound is the share of the substance not bound to proteins or other matrix. Lower therefore signals little free substance. The term EC50 denotes the concentration needed to bring the measured effect to its halfway point.

Consider `Nc1nc2ccc(SC(F)(F)F)cc2s1` [SKA-19, 6-((trifluoromethyl)thio)benzo[d]thiazol-2-amine], for which the “afterdischarge duration (ADD)” value in data set [1] (30 mg/kg i.p., two fully kindled rats) is on record as “completely suppressed”. Further, the “seizure score after treatment” value in data set [1] (30 mg/kg i.p., two fully kindled rats, predrug score 4-5) is given as 0. This compound had an ED50 in data set [1] (Rattus norvegicus, ip, 2 h) of 5.47 mg/kg. The “toxicity in kindled rats” value in data set [1] (highest dose 15 mg/kg) is “no evidence of toxicity”. In addition, in data set [2], the fraction unbound is 0.11 to 0.18, the fraction unbound at 15 min is 0.11 and the “unbound (free) fraction” value worked out at 9.0±0.4%. Moreover, in data set [3] (read-out: EC50 or IC50, KCa2.2), the EC50 came to 14 µM. For the same compound, in data set [3] (stated for KCa2 currents), the “maximal increase of KCa2 currents” value is given as 30 fold.

(Values after patent publication US9675591B2, “Methods for treating seizure disorders and pain” (THE REGENTS OF THE UNIVERSITY OF CALIFORNIA, priority 2013, dated 2017).)
